Measurements as given in patent publication EP0501375A1 (priority 1991, dated 1992).
*1 amine or outer side, *2 acyl side, *3 side chain or, on linkers, in order; H or OH if unused. Where a SMILES comes first, the peptide text is derived from it. CO = O=C([*:1])[*:2]

Tests used:
[1] = target: T1, alkaline protease K-16 (Shouchella clausii, UniProt Q99405); assay: biochemical; type: biochemical, Bacillus sp. KSM-K16
[2] = target: T1, alkaline protease K-16; assay: Effects of metal ions on protease activity; type: biochemical, Bacillus sp. KSM-K16; conditions: metal salt 1 mM; for Residual Activity: pH 9.5, 30°C for 20 minutes, relative to no metal salt; for effect on activity of the alkaline protease K-16 (in words): 30°C for 20 minutes
Procedure: A 1 ml portion of 50 mM boric acid-NaOH buffer (pH 10) containing 1% casein was mixed with 0.1 ml of enzyme solution, and the mixture was incubated at 40°C for 10 minutes. The reaction was stopped by adding 2 ml of a solution containing 0.123 M trichloroacetic acid, 0.246 M sodium acetate and 0.369 M acetic acid. After allowing to stand at 30°C for 20 minutes, the resulting mixture was filtered through a filter paper (manufactured by Whatman; No. 2), and the filtrate was checked for its contents of proteolytic products in accordance with the modified Folin-Lowry method. One unit of activity (1 P.U.) was defined as the amount of enzyme which produces 1 mmole of tyrosine per minute.
Effects of various metal ions on the activity of the alkaline protease K-16 were examined. A 20 mM boric acid-NaOH buffer (pH 9.5) solution containing 1 mM of a metal salt was mixed with 3.9 x 10⁻³ P.U. of the alkaline protease K-16, and the mixture was maintained at 30°C for 20 minutes. Thereafter, the thus treated mixture was diluted with 50 mM boric acid-NaOH buffer (pH 10.0) by a factor of 5 to measure residual activity which was then calculated as relative value based on the activity measured in the same manner in the absence of metal salts. […] Also, as is evident from the results described in the foregoing items (5) and (6), thermal stability of this enzyme is improved in the presence of Ca²⁺ TABLE 3

T1 sequence (Q99405 112-380): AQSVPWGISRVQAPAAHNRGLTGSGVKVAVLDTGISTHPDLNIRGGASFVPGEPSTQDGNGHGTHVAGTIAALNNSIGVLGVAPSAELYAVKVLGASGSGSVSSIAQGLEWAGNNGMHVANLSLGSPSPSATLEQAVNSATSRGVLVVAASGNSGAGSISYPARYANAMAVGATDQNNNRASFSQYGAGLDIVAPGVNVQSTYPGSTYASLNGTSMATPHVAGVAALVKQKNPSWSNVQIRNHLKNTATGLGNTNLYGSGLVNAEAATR

O=C(O)CN(CCN(CC(=O)O)CC(=O)O)CC(=O)O [EDTA]
remaining activity at 5000 µM ([1]; pH 7, read-out: Residual Activity): 107%

CC(C)[C@H](NC(=O)[C@H](CCCNC(=N)N)NC(=O)N[C@@H](Cc1ccccc1)C(=O)O)C(=O)N[C@H](C=O)CCCNC(=N)N [Antipain] ({Phe-CO}-Arg-Val-Arg-aldehyde)
Residual Activity ([1]; pH 7): 108%

O=[N+]([O-])[O-].[Ag+] [AgNO₃]
Residual Activity [2]: 86%

CC(C)C[C@H](NC(=O)[C@@H](NC(=O)N[C@@H](Cc1ccccc1)C(=O)O)[C@@H]1CCN=C(N)N1)C(=O)N[C@H](C=O)Cc1ccccc1 [Chymostatin]
Residual Activity ([1]; pH 7): 34% | effect on activity of the alkaline protease K-16 (in words) ([1]; pH 7): inhibited

O=S(=O)([O-])[O-].[Cu+2] [CuSO₄]
effect on activity of the alkaline protease K-16 (in words) [2]: inhibited | Residual Activity [2]: 73%

[Cl][Hg][Cl] [HgCl₂]
effect on activity of the alkaline protease K-16 (in words) [2]: inhibited | Residual Activity [2]: 46%

[Cl-].[Cl-].[Zn+2] [ZnCl₂]
Residual Activity [2]: 106%

[Cl-].[Cl-].[Co+2] [CoCl₂]
Residual Activity [2]: 103%

[Ca+2].[Cl-].[Cl-] [CaCl₂]
Residual Activity [2]: 103%

[Cl][Ni][Cl] [NiCl₂]
Residual Activity [2]: 103%

[Cl][Pb][Cl] [PbCl₂]
Residual Activity [2]: 100%
